Assay results reported in PubChem BioAssay (NCI).
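Grown in 96-well plates, cells were treated for 48 hours with each compound at five concentrations. Insufficient inhibition: endpoint recorded as highest concentration tested. Definition used: TGI = concentration required for complete inhibition of growth.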

Experiments:
Test in all cases: inhibition of tumour cell growth, NCI panel, 48 h
[1] = tested on: ACHN renal
[2] = tested on: U251 CNS
[3] = tested on: MALME-3M melanoma
[4] = tested on: K-562 leukemia
[5] = tested on: SW-620 colon
[6] = tested on: UO-31 renal
[7] = tested on: SK-MEL-5 melanoma
[8] = tested on: UACC-257 melanoma
[9] = tested on: HCT-116 colon
[10] = tested on: RXF 393 renal
[11] = tested on: SF-268 CNS
[12] = tested on: NCI-H522 lung
[13] = tested on: OVCAR-5 ovarian
[14] = tested on: SR leukemia
[15] = tested on: M14 melanoma
[16] = tested on: OVCAR-8 ovarian
[17] = tested on: MCF7 breast
[18] = tested on: NCI/ADR-RES ovarian

SMILES | TGI [1] | TGI [2] | TGI [3] | TGI [4] | TGI [5] | TGI [6] | TGI [7] | TGI [8] | TGI [9] | TGI [10] | TGI [11] | TGI [12] | TGI [13] | TGI [14] | TGI [15] | TGI [16] | TGI [17] | TGI [18]
C=C(Cl)C(Br)(CCl)CCC(Cl)C(C)C (stereo not drawn) (tested in a mixture with another compound) | 3.98 µM | 3.14 µM | 7.07 µM | 24.2 µM | 2.96 µM | 3.01 µM | 3.9 µM | 3.27 µM | 3.92 µM | 3.93 µM | 3.53 µM | 2.95 µM | 6.69 µM | > 100 µM | 3.87 µM | – | – | –
CCOP(=O)(C/C(=N/NC(C)(C)C)C(=O)Nc1nc2ccc(C)cc2s1)OCC | > 100 µM | > 100 µM | > 100 µM | > 100 µM | > 100 µM | > 100 µM | > 100 µM | > 100 µM | > 100 µM | > 100 µM | > 100 µM | > 100 µM | > 100 µM | > 100 µM | > 100 µM | > 100 µM | – | –
CCC(=O)NCC1(c2c[nH]c3ccccc23)SCCS1 | > 100 µM | > 100 µM | > 100 µM | > 100 µM | > 100 µM | – | > 100 µM | > 100 µM | > 100 µM | – | > 100 µM | > 100 µM | > 100 µM | > 100 µM | > 100 µM | > 100 µM | – | –
Cn1cc(C=C(C#N)C#N)c(=O)n(C)c1=O | > 100 µM | > 100 µM | – | – | > 100 µM | > 100 µM | > 100 µM | > 100 µM | > 100 µM | > 100 µM | > 100 µM | > 100 µM | > 100 µM | – | > 100 µM | > 100 µM | > 100 µM | > 100 µM
O=c1[nH]nc2c3n[nH]c(=O)n3c3ccccc3n12 | > 100 µM | > 100 µM | > 100 µM | > 100 µM | > 100 µM | > 100 µM | > 100 µM | > 100 µM | > 100 µM | > 100 µM | > 100 µM | > 100 µM | > 100 µM | – | > 100 µM | > 100 µM | – | –
CCCCNC(=O)C1=C(C)NC(C)=C(C(=O)NCCCC)C1 | > 100 µM | > 100 µM | – | – | > 100 µM | > 100 µM | > 100 µM | > 100 µM | > 100 µM | > 100 µM | > 100 µM | – | > 100 µM | – | > 100 µM | > 100 µM | > 100 µM | > 100 µM
c1ccc(SCCP(CCP(c2ccccc2)c2ccccc2)c2ccccc2)cc1 (stereo not drawn) | > 76 µM | > 100 µM | > 59.1 µM | > 100 µM | > 100 µM | 53.9 µM | 33.8 µM | > 74.7 µM | > 24.3 µM | > 100 µM | > 100 µM | – | > 100 µM | – | 43.5 µM | > 100 µM | > 100 µM | > 100 µM
CCOC(=O)NC(=O)c1cn(-c2ccc(CCOC(=O)CCCCCCCCC(=O)OCCc3ccc(-n4cc(C(=O)NC(=O)OCC)c(=O)[nH]c4=O)cc3)cc2)c(=O)[nH]c1=O | > 100 µM | > 100 µM | > 100 µM | > 100 µM | > 100 µM | > 100 µM | > 100 µM | > 100 µM | > 100 µM | > 100 µM | > 100 µM | – | > 100 µM | > 100 µM | > 100 µM | > 100 µM | – | –
COc1cccc(NC(=O)c2c(SC)n[nH]c2N)c1 | > 100 µM | > 100 µM | > 100 µM | > 100 µM | > 100 µM | – | > 100 µM | > 100 µM | > 100 µM | > 100 µM | > 100 µM | > 100 µM | > 100 µM | – | > 100 µM | > 100 µM | > 100 µM | > 100 µM
COC(=O)C(=O)C(C(=O)C(=O)Nc1ccc([N+](=O)[O-])cc1C#N)c1nc2ccc([N+](=O)[O-])cc2[nH]c1=O (stereo not drawn) | > 100 µM | > 100 µM | > 100 µM | > 100 µM | > 100 µM | > 100 µM | – | > 100 µM | > 100 µM | > 100 µM | > 100 µM | > 100 µM | > 100 µM | > 100 µM | > 100 µM | > 100 µM | – | –
Clc1ccc(OCc2nnc(CCCCCCCCc3nnc(COc4ccc(Cl)cc4)o3)o2)cc1 | > 100 µM | > 100 µM | > 100 µM | > 100 µM | > 100 µM | > 100 µM | > 100 µM | > 100 µM | 28.2 µM | > 100 µM | > 100 µM | > 100 µM | > 100 µM | – | > 100 µM | – | > 100 µM | > 100 µM
O=c1[nH]ncc2[nH]c3c(c12)CCCc1ccccc1-3 | > 100 µM | > 100 µM | > 100 µM | > 100 µM | > 100 µM | > 100 µM | > 100 µM | > 100 µM | > 100 µM | 41.9 µM | > 100 µM | > 100 µM | > 100 µM | – | > 100 µM | > 100 µM | > 100 µM | > 100 µM
COc1cc2c(cc1OC)[C@]1(O)C(=O)c3ccc4c(c3O[C@@H]1CO2)C[C@H](C(C)(C)O)O4 | > 100 µM | > 100 µM | > 100 µM | > 100 µM | > 100 µM | > 100 µM | – | > 100 µM | > 100 µM | > 100 µM | – | > 100 µM | > 100 µM | – | > 100 µM | > 100 µM | – | –
CCN(CC)CC1CCCCN1CC(=O)N1c2ccc(Br)cc2C(=O)Nc2cccnc21 (stereo not drawn) | > 100 µM | > 100 µM | > 100 µM | > 100 µM | – | 44.8 µM | > 100 µM | > 100 µM | > 100 µM | > 100 µM | > 100 µM | > 100 µM | > 100 µM | > 100 µM | > 100 µM | > 100 µM | > 100 µM | –
CC(=O)C1CC2(c3ccccc3)C(=O)c3ccccc3N2O1 (stereo not drawn) | > 100 µM | > 100 µM | > 100 µM | > 100 µM | > 100 µM | > 100 µM | > 100 µM | > 100 µM | > 100 µM | > 100 µM | > 100 µM | > 100 µM | – | > 100 µM | > 100 µM | > 100 µM | – | –
